Test results as given in patent US7968599B2, “Fast release solid formulation, preparation and use thereof” (Intervet International B.V., priority 2007, dated 2011).

Assay: Dissolution / solubility rate profile, USP apparatus 2 with paddle agitation
Assay type: physicochemical
Conditions: Milli-Q water 25° C., paddle 50 rpm, final 0.1 mg/mL florfenicol
Experimental: To determine the solubility profile of different formulations, dissolution was performed using USP apparatus 2 with paddle agitation at 50 rpm. The dissolution medium was Milli-Q water maintained at a temperature of 25° C. The formulations were added directly to the water in the correct amount to achieve a final concentration of 0.1 mg/mL of florfenicol. Aliquots of the resulting solution were withdrawn and analyzed using either UV-VIS spectrophotometry or HPLC, the latter to exclude excipient contribution or degradation of florfenicol. For HPLC analysis, an organic/aqueous mobile phase was used for the separation on a C18, reverse phase column. Detection was performed by UV absorption spectrometry. The percent dissolved was calculated versus an external reference standard prepared at the nominal concentration of the analyte.

CS(=O)(=O)c1ccc([C@@H](O)[C@@H](CF)NC(=O)C(Cl)Cl)cc1 (relative stereo) [florfenicol, [R-(R*,S*)]-2,2-Dichloro-N-[1-(fluoromethyl)-2-hydroxy-2-[4-(methylsulfonyl)phenyl]-ethyl]acetamide]
percent florfenicol dissolved within 15 minutes (15 minutes): approximately 25%
percent florfenicol dissolved within 60 minutes (60 minutes): approximately 43%
